Assay results from patent US5714490A, “Tetrahydrofuran antifungals” (Schering Corporation, priority 1995, dated 1998).

How the values were obtained:
Dermatophytes [1] = assay: in vitro broth dilution MFC against Dermatophytes; assay type: cell-based, T. rubrum, T. mentagrophytes, and T. tonsurans; conditions: 6 strains
Protocol: (§1) The in vitro antifungal activity tests were performed via conventional broth dilution methods in Sabouraud dextrose broth ("SDB") medium and Eagles Minimum Essential Medium ("EMEM") against a large number of fungi. Minimum Inhibitory Concentrations ("MICs") were measured after 24, 48 and 72 hour tests. In many cases, Minimum Fungicidial Concentrations ("MFCS") were measured after 48 and 72 hours.

Aspergillus [2] = assay: in vitro broth dilution MFC against Aspergillus; assay type: cell-based, Aspergillus flavus, fumigatus and other species; conditions: 37 strains
Protocol: as §1

Candida krusei [3] = assay: in vitro broth dilution MFC against Candida krusei; assay type: cell-based; conditions: 16 strains
Protocol: as §1

Candida glabrata [4] = assay: in vitro broth dilution MIC against Candida glabrata; assay type: cell-based; conditions: 9 strains
Protocol: as §1

[5] = serum levels, half life and tissue distribution after oral dosing; assay type: in vivo, mice, rats, dogs and monkeys
[6] = test system: cytochrome P-450 liver drug metabolizing enzymes; assay: induction of liver drug metabolizing enzymes in an in vivo rat model; conditions: oral administration
Aspergillus [7] = assay: in vitro broth dilution MIC against Aspergillus; assay type: cell-based, Aspergillus flavus, fumigatus and other species; conditions: 37 strains
Protocol: as §1

Cryptococcus neoformans [8] = assay: in vitro broth dilution MFC against Cryptococcus neoformans; assay type: cell-based; conditions: 3 strains
Protocol: as §1

Candida albicans [9] = assay: in vitro broth dilution MIC against Candida albicans; assay type: cell-based; conditions: 26 strains
Protocol: as §1

Cryptococcus neoformans [10] = assay: in vitro broth dilution MIC against Cryptococcus neoformans; assay type: cell-based; conditions: 3 strains
Protocol: as §1

Candida albicans [11] = conditions: 26 strains
Protocol: as §1

[12] = test system: Candida tropicalis & stellatoidea; conditions: 5 strains
Protocol: as §1

Candida glabrata [13] = assay: in vitro broth dilution MFC against Candida glabrata; assay type: cell-based; conditions: 9 strains
Protocol: as §1

Candida krusei [14] = assay: in vitro broth dilution MIC against Candida krusei; assay type: cell-based; conditions: 16 strains
Protocol: as §1

Dermatophytes [15] = assay: in vitro broth dilution MIC against Dermatophytes; assay type: cell-based, T. rubrum, T. mentagrophytes, and T. tonsurans; conditions: 6 strains
[16] = test system: Candida tropicalis & stellatoidea; assay: in vitro broth dilution MIC against Candida tropicalis & stellatoidea; assay type: cell-based; conditions: 5 strains
Protocol: as §1

## CC[C@@H]([C@H](C)O)n1ncn(-c2ccc(N3CCN(c4ccc(OC[C@@H]5CO[C@@](Cn6cncn6)(c6ccc(F)cc6F)C5)cc4)CC3)cc2)c1=O [drawing 22]
Dermatophytes [1]
  PERCENTAGE OF STRAINS WITH MFCs ≤1 MCG/ML: 83 PERCENTAGE
Aspergillus [2]
  PERCENTAGE OF STRAINS WITH MFCs ≤1 MCG/ML: 62 PERCENTAGE
Candida krusei [3]
  PERCENTAGE OF STRAINS WITH MFCs ≤1 MCG/ML: 94 PERCENTAGE

## CC[C@@H]([C@@H](C)O)n1ncn(-c2ccc(N3CCN(c4ccc(OC[C@@H]5CO[C@@](Cn6cncn6)(c6ccc(F)cc6F)C5)cc4)CC3)cc2)c1=O
Dermatophytes [1]
  PERCENTAGE OF STRAINS WITH MFCs ≤1 MCG/ML: 100 PERCENTAGE
Candida glabrata [4]
  PERCENTAGE OF STRAINS WITH MICs ≤1 MCG/ML: 33 PERCENTAGE
Aspergillus [2]
  PERCENTAGE OF STRAINS WITH MFCs ≤1 MCG/ML: 89 PERCENTAGE
Candida krusei [3]
  PERCENTAGE OF STRAINS WITH MFCs ≤1 MCG/ML: 100 PERCENTAGE

## CC[C@@H]([C@H](C)O)n1ncn(-c2ccc(N3CCN(c4ccc(OC[C@@H]5CO[C@@](Cn6cncn6)(c6ccc(F)cc6F)C5)cc4)CC3)cc2)c1=O [drawing 20]
[5]; O.D. dosing
  serum half lives: very long serum half lives
  tissue distribution: good tissue distribution
[5]; oral dosing, methyl cellulose formulation, mice, rats, dogs and monkeys
  serum levels compared to azoles of similiar structure: consistently higher serum levels
[6]
  induction of cytochrome P-450 liver drug metabolizing enzymes: not inducers

## CC[C@H]([C@H](C)O)n1ncn(-c2ccc(N3CCN(c4ccc(OC[C@@H]5CO[C@@](Cn6cncn6)(c6ccc(F)cc6F)C5)cc4)CC3)cc2)c1=O
Dermatophytes [1]
  PERCENTAGE OF STRAINS WITH MFCs ≤1 MCG/ML: 67 PERCENTAGE
Aspergillus [7]
  PERCENTAGE OF STRAINS WITH MICs ≤1 MCG/ML: 100 PERCENTAGE
Cryptococcus neoformans [8]
  PERCENTAGE OF STRAINS WITH MFCs ≤1 MCG/ML: 100 PERCENTAGE
Candida albicans [9]
  PERCENTAGE OF STRAINS WITH MICs ≤1 MCG/ML: 100 PERCENTAGE
Cryptococcus neoformans [10]
  PERCENTAGE OF STRAINS WITH MICs ≤1 MCG/ML: 100 PERCENTAGE
Candida albicans [11]
  PERCENTAGE OF STRAINS WITH MFCs ≤1 MCG/ML: 100 PERCENTAGE
[12]
  PERCENTAGE OF STRAINS WITH MFCs ≤1 MCG/ML: 100 PERCENTAGE
Candida glabrata [13]
  PERCENTAGE OF STRAINS WITH MFCs ≤1 MCG/ML: 22 PERCENTAGE
Candida glabrata [4]
  PERCENTAGE OF STRAINS WITH MICs ≤1 MCG/ML: 22 PERCENTAGE
Aspergillus [2]
  PERCENTAGE OF STRAINS WITH MFCs ≤1 MCG/ML: 50 PERCENTAGE
Candida krusei [14]
  PERCENTAGE OF STRAINS WITH MICs ≤1 MCG/ML: 100 PERCENTAGE
Dermatophytes [15]
  PERCENTAGE OF STRAINS WITH MICs ≤1 MCG/ML: 100 PERCENTAGE
Candida krusei [3]
  PERCENTAGE OF STRAINS WITH MFCs ≤1 MCG/ML: 88 PERCENTAGE
[16]
  PERCENTAGE OF STRAINS WITH MICs ≤1 MCG/ML: 100 PERCENTAGE
